Results published in patent EP0610377B1, “TRI-SUBSTITUTED TETRAHYDROFURAN ANTIFUNGALS” (SCHERING CORPORATION, priority 1991, dated 1993).

Columns and labels:
Assay type in all cases: in vivo
C. albicans C-65 = test: Candida systemic model in normal and compromised CF1 mice infected with C. albicans C-65, oral treatment; conditions: normal and compromised mice; result in words (text refers to Tables II and V)
Procedure: (§1) The compounds of Examples 23-26 and itraconazole, fluconazole, and saperconazole were tested for in vivo oral antifungal activity in a Candida systemic model using CF1 male mice , average weight 20 g, Harlan Sprague Dawley, Inc., Indianapolis, Ind. infected by IV injection into the tail vein of C. albicans C-43 (5 million CFUs). The drugs were dissolved in polyethylene glycol-200 (PEG-200) and tested by orally administering 50, 25 and 10 mpk of each drug 4 hours post infection and once daily for 3 more days. Oral efficacy was measured after four (4) days by percent survival and by the number of organisms remaining in the kidneys i.e., the Colony Forming Units (CFUs). The mice were sacrificed and the kidneys of individual mice were homogenized in sterile saline, diluted and spread onto Mycosel agar. Colony counts were determined after 48 hours at 37°C. For calculation of geometric means, mice that died during the experiment were considered to have 10^9 CFUs/kidneys (based on numerous previous experiments).
The compounds of Examples 23-24 and itraconazole, fluconazole, were tested for in vivo oral antifungal anctivity in a Candida systemic model using normal and compromised CF1 mice infected with C. albicans C-65 (5 million CFUs). The procedure of Example 33 was followed. The drugs were dissolved in polyethylene glycol-200 ("PEG-200) at room temperature and tested by orally administering 100, 50, 25, 10 and 1 mpk of each drug. Oral efficacy was measured by percent survival and by the number of organisms remaining in the kidneys (CFUs) after four days. […] The pharmaceutical composition of the preferred compound of formula IIb of Eample 24 in hydroxypropyl beta cyclodextrin ("HPβCD") having 7.4 hydroxypropyl groups per HPβCD (obtained from Pharmatec, Inc., Alachua, FL 32615) was prepared by admixing the appropriate amount of the compound IIa with a 40% (w/v) solution of HPβCD (4 g of HPβCD per 10 mL of purified water). Gentle heating was used to form a clear solution. For the 10 mpk dose, 12 mg of Ha was added to 6 mL of a 40% w/v solution of HPβCD. For dilutions, sterile water was added to the solution with mixing. The pharmaceutical composition of itraconazole and the Pharmatec HPβCD described above was prepared as follows. Propylene glycol (10 mL) was admixed with 0.95 mL of concentrated HCI at 40°-45°C with stirring. Itraconazole (2.5 g) was added thereto and stirring was continued until homogeneous. The mixture so formed was cooled to 20° to 30°C and admixed with a solution of 60 g of HPβCD in 40 mL of purified water to form a clear solution. The pH was adjusted to a value of 1.9-2.1 with 10N NaOH and sufficient purified water added (with mixing) to a final volume of 100 mL. For dilutions, sterile water was added to the itraconazole - HPβCD.

Candida = Candida vaginal infection in a hamster model; conditions: result in words
Aspergillus flavus [1] = test: Aspergillus flavus pulmonary infection model in compromised mice, oral treatment
Description: The in vivo oral antifungal activity of the compounds of Example 23-26 were compared to those of itraconazole, fluconazole and saperconazole in an Aspergillus pulmonary infection model in mice. The procedure of David Loebenberg et al. entitled "Sch 42427, The Active Enantiomer of Antifungal agent Sch 39304: In Vitro and In Vivo Activity" Antimicrobial Agents and Chemotherapy (1992), 36 498-501 was used. The Aspergillus flavus pulmonary model was run in the following manner Male, CF-1 mice weighing 20 grams were compromised with cortisone acetate (100 mg/kg), administered subcutaneously, once daily for 3 days. In addition, to prevent bacterial disease, tetracycline HCL (300 mg/1) was added to the drinking water and given ad libitum. On day 2 of compromising, mice were infected in an inhalation chamber, first described by Piggot and Emmons in 1960 and modified by us. The chamber is a 1 liter pyrex, thick-walled flask with 8 tubular side-arms that extend into the flask. Each side-arm is a pyrex tube of 14 cm length, constricted to a 1 cm opening inside the flask. The bottom of the flask was covered with a malt extract agar medium on which a sporulating culture of A. flavus ATCC 24133 was grown for 13 days at room temperature. The top of the flask was closed with a #10 stopper through which passed a glass tube attached by rubber tubing to a 60 mL syringe. Mice were placed in each of the side arms and pushed to the bottoms so that their nares extended beyond the open end of the tube and over the agar. Cotton plugs were then inserted behind the mice to hold them in place. By pumping the 60 mL syringe twice, air was forced over the culture and produced a cloud of spores. Mice were exposed to the spore cloud for one minute. Within 15-30 minutes after exposure, a number of mice were sacrificed and lung tissue samples homogenized for culture to determine the number of inhaled conidia. Oral treatment began 24 h post-infection with doses of 5 to 250 mg of drug/kg in ethanol; vehicle (115 ml of Emulphor EL-719P, GAF, Wayne, NJ; and 5 ml of 20% w/v lactic acid per liter of water), 10:90 v/v, once daily for 4 days.
The procedure of Example 31 was used to compare the in vivo oral antifungal activity of (±)-5R/S-(cis)-4-[4-[4-[4-[[5-(2,4-difluorophenyl)-5-(1H-1,2,4-triazol-1-ylmethyl) tetrahydrofuran-3-yl]methoxy-phenyl-1-piperazinyl]phenyl]-2,4-dihydro-2[(R/S)-(1-methylpropyl)]-3H-1,2,4-triazol-3-one with (±)-2R/S-(cis)-1-[4-[[2-(2,4-difluorophenyl)-2-(1H-1,2,4-triazol-1-ylmethyl) tetrahydro-4-furanyl]methoxy]phenyl]-4-(1-methylethyl)piperazine of Example 68 of USP 5,039,676 in an Aspergillus pulmonary infection model described in Example 31. […]
The procedures of Examples 31 and 34 were used.

Aspergillus flavus [2] = test: as above; conditions: head prints 50 mg/kg (third dose column, c3), in PEG-200 daily for 4 days; CF-1 mice
C. albicans C-43 = test: Candida systemic model in CF1 mice infected IV with C. albicans C-43, oral treatment
Procedure: as §1, with “The drugs were dissolved in polyethylene glycol-200 (PEG-200) and tested by orally administering 50, 25 and 10 mpk of each drug 4 hours post infection and once daily for 3 more days.” left out

| SMILES | activity against systemic candidiasis compared with itraconazole and saperconazole (C. albicans C-65) | activity against a Candida vaginal infection compared with itraconazole and saperconazole (Candida) | oral activity against Aspergillus flavus pulmonary infections compared with itraconazole, fluconazole and saperconazole (Aspergillus flavus [1]; in vivo mouse model, PO, result in words) | PERCENT SURVIVAL AFTER 5 DAYS (5D) (Aspergillus flavus [2]) | %SURVIVAL (C. albicans C-43; 50 MPK PO in PEG-200, 1 a day x 4 days, day 4 post-infection) | CFUs (GM) (C. albicans C-43; 50 MPK PO in PEG-200, day 4, geometric mean of the logarithms of CFU remaining in the kidneys (dead mice counted as 10^9)) | %SURVIVAL (Aspergillus flavus [1]; 100 mg/kg PO once a day for 4 days, 18 days post infection, compromised CF-1 mice) | %ANIMALS NEG (Aspergillus flavus [1]; 100 mg/kg PO once a day for 4 days, 18 days post infection, negative = <10 colonies) |
| --- | --- | --- | --- | --- | --- | --- | --- | --- |
| CCC(CC)n1ncn(-c2ccc(N3CCN(c4ccc(OC[C@@H]5CO[C@@](Cn6cncn6)(c6ccc(F)cc6F)C5)cc4)CC3)cc2)c1=O [IIc] | more active | more active | more active orally | – | – | – | – | – |
| CCC(C)n1ncn(-c2ccc(N3CCN(c4ccc(OC[C@H]5CO[C@](Cn6cncn6)(c6ccc(F)cc6F)O5)cc4)CC3)cc2)c1=O (some centres unmarked) [Saperconazole, reference compound] | – | – | – | 50 | 20% | 8.20 | 0% | 0% |
